Converted amounts (≈) assume the structure as drawn. Read-outs that look alike come from different tables or passages of the source. Positions of bridges follow the written chain, without caps; N, C: chain ends. Non-standard residues stand in square brackets, D forms with d. Residues, ends and D or L forms follow the SMILES beside them. *: point of attachment. Ileψ(thiazoline)Cys = CC[C@H](C)[C@H](N)C1=N[C@H](C(=O)*)CS1; dOrn = NCCC[C@@H](N)C(=O)O
Legend:
H. pylori strain 26695 [1] = test: Minimum inhibitory concentration (MIC) on plates, parental strain; type: cell-based, Helicobacter pylori
Excerpt: (§1) Minimal Inhibitory Concentration (MIC). To determine the MIC for amoxicillin, suspensions of H. pylori estimated to contain […] bacteria/ml (OD600 nm of 0.1) were serially diluted and grown on plates containing various concentrations of amoxicillin. The MIC was defined as the amoxicillin concentration leading to a decrease of 3 log of CFU/ml as compared to growth without amoxicillin.
(§2) To determine the MIC of different antibiotics, suspensions of H. pylori estimated to contain 10^8 bacteria/ml (OD600 nm of 0.1) were serially diluted and grown on plates containing various concentrations of amoxicillin. The MIC was defined as the minimal concentration leading to a decrease of 3 log of CFU/ml as compared to growth without antibiotic. Minimum bactericidal concentration (MBC) for amoxicillin was done as follow. Bacteria were grown in increasing concentrations of amoxicillin in liquid culture and OD600 nm was monitored. After 18 hours, CFU/ml counts were determined for each amoxicillin concentration. MBC was defined as the concentration leading to a 3 log decrease of CFU/ml as compared as growth without amoxicillin.

[2] = test system: H. pylori 26695 amiA mutant; test: Minimum inhibitory concentration (MIC) on plates, amiA mutant; type: cell-based, Helicobacter pylori
Excerpt: as §1, §2

human Nod2 = target: T1, human Nod2 (Homo sapiens, UniProt Q9HC29); test: Nod2-dependent NF-κB luciferase activation in transfected HEK293T cells; type: cell-based; details: HEK293T cells transfected with hNod2 and luciferase reporter; FIG. 4D
T1 construct: host or cells: HEK293T
Excerpt: Expression Plasmids, Transient Transfections and NF-κB Activation Assays. The expression plasmid for FLAG-tagged hNod1 was from Gabriel Nuñez (University of Michigan Medical School, Ann Arbor, Mich.) and has been described previously. The expression plasmid for hNod2 was from Gilles Thomas (Foundation Jean Dausset/CEPH, Paris, France). HEK293T cells were used for transfections as described previously. Synergistic activation of NF-κB by PGs, muramyl peptides, and related compounds in cells over-expressing Nod1 or Nod2 was studied as described by Inohara et al.. Briefly, HEK293T cells were transfected overnight with 10 ng of hNod1 or 30 ng of hNod2 plus 75 ng of Ig luciferase reporter plasmid. PG samples (0.1 μg/ml) were digested with 0.25 μg/μl mutanolysin. At the same time, 0.3 μg of PG preparations or 10 pmol of muramyl-peptides were added to the cell culture medium, and synergistic NF-κB-dependent luciferase activation was measured after 24 h of co-incubation. NF-κB-dependent luciferase assays were performed in duplicate, and data reported represent at least three independent experiments. Data was standardized with positive controls: M-dipeptide for hNod2 and M-tripeptide for hNod1. hNod1 and hNod2 were activated with H. pylori PG (0.3 μg/ml) digested with M1 or Slt70 as previously described.

[3] = test system: H. pylori 26695 amiA− complemented; test: Minimum inhibitory concentration (MIC) on plates, complemented amiA mutant; type: cell-based; details: Helicobacter pylori, read-out: MIC (μg/ml of amoxicillin)
Experimental: as §2

H. pylori strain 26695 [4] = test: Minimum bactericidal concentration (MBC) in liquid culture, parental strain; type: cell-based, Helicobacter pylori
Experimental: as §2

[5] = test system: H. pylori 26695 amiA mutant; test: Minimum bactericidal concentration (MBC) in liquid culture, amiA mutant; type: cell-based, Helicobacter pylori; details: 18 hours, maximum concentration tested 32 μg/ml
Experimental: as §2

[6] = test system: H. pylori 26695 amiA− complemented; test: Minimum bactericidal concentration (MBC) in liquid culture, complemented amiA mutant; type: cell-based, Helicobacter pylori
Experimental: as §2

H. pylori strain 26695 [7] = test: Morphological transition into coccoid forms after amoxicillin (scanning electron microscopy), parental strain; type: cell-based, Helicobacter pylori; details: 3-4 h exposure to amoxicillin (10 μg/ml) after 18 h of growth without antibiotic
Experimental: (§3) Some stress signals, including amoxicillin treatment, can induce the morphological transition into coccoid forms. The inventors investigated the response of the ami A mutant to amoxicillin. First the inventors determined the MIC of amoxicillin: it was identical for the ami A mutant and the parental strain 26695 (0.06 μg/ml). After overnight culture, 10 μg/ml of amoxicillin was added to the media and after three hours of antibiotic treatment bacteria were observed by scanning electron microscopy. […] Thus, AmiA is required both for PG modifications and morphological transition.
(§4) For scanning electron microscopy (SEM), samples were washed in PBS, prefixed in 2.5% glutaraldehyde in 0.1M cacodylate buffer for 30 minutes and then rinsed in 0.2M cacodylate buffer. After post-fixation in 1% osmium tetraoxide (in 0.2M cacodylate buffer), bacteria were dehydrated in a series of ethanol concentrations. Specimens were critical-point dried using carbon dioxide, then coated with gold and examined with a JEOL JSM-6700F SEM.

[8] = test system: H. pylori 26695 amiA mutant; test: Morphological transition into coccoid forms after amoxicillin (scanning electron microscopy), amiA mutant; type: cell-based, Helicobacter pylori
Experimental: as §3, §4

[9] = Helicobacter pylori, other antibiotics, read-out: MIC

T1 sequence (Q9HC29 whole entry): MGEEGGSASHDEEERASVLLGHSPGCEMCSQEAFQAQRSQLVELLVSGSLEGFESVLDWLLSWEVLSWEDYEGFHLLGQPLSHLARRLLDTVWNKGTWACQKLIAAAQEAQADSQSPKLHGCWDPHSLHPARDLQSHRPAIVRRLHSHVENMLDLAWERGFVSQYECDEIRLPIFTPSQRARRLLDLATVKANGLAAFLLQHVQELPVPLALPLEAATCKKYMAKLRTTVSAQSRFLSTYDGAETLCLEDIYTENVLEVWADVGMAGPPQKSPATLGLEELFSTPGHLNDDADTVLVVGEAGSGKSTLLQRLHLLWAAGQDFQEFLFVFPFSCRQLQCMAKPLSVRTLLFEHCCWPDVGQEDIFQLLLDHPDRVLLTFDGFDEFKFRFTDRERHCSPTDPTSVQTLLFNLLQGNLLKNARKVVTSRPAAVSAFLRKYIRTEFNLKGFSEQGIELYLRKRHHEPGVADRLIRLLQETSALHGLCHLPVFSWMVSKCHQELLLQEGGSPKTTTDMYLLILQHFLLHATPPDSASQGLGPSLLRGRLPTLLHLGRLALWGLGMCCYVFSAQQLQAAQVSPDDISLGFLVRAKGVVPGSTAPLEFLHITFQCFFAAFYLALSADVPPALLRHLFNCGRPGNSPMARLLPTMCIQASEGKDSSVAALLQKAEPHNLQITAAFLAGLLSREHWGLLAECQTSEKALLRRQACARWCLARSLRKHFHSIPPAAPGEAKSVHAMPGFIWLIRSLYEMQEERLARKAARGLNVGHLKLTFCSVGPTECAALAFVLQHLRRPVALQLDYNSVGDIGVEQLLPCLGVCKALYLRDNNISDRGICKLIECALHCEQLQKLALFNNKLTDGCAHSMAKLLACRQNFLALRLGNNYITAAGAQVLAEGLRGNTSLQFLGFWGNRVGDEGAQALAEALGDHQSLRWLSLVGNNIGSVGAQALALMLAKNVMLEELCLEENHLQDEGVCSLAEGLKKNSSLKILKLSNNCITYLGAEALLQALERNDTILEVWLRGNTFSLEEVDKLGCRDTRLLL

CC[C@H](C)[C@H](N)C1=N[C@H](C(=O)N[C@@H](CC(C)C)C(=O)N[C@H](CCC(=O)O)C(=O)N[C@H](C(=O)N[C@H]2CCCCNC(=O)[C@H](CC(N)=O)NC(=O)[C@@H](CC(=O)O)NC(=O)[C@H](Cc3cnc[nH]3)NC(=O)[C@@H](Cc3ccccc3)NC(=O)[C@H]([C@@H](C)CC)NC(=O)[C@@H](CCCN)NC2=O)[C@@H](C)CC)CS1 [Bacitracin] ({Ileψ(thiazoline)Cys}-L[dE]IK[dOrn]I[dF]H[dD]N; lactam 4-C)
MIC (H. pylori strain 26695 [1]; [9]): > 1000 µg/mL | MIC ([2]; Helicobacter pylori): > 1000 µg/mL

CC(=O)NC1C(OC2C(CO)OC(O)C(NC(C)=O)C2OC(C)C(=O)NC(C)C(=O)NC(CCC(=O)O)C(=O)O)OC(CO)C(O)C1O [GM-dipeptide, N-acetyl-D-glucosminyl-β(1,4)-N-acetylmuramyl-L-Ala-D-Glu]
Nod2-dependent activation of NF-κB (human Nod2): detected via Nod2 in a dose dependent manner

CCn1cc(C(=O)O)c(=O)c2ccc(C)nc21 [Nalidixic acid]
MIC (H. pylori strain 26695 [1]; [9]): 30 µg/mL (≈ 129 µM) | MIC ([2]; Helicobacter pylori): 30 µg/mL (≈ 129 µM)

Cc1ncc([N+](=O)[O-])n1CCO [Metronidazole]
MIC (H. pylori strain 26695 [1]; [9]): 1 µg/mL (≈ 5.84 µM) | MIC ([2]; Helicobacter pylori): 1 µg/mL (≈ 5.84 µM)

[H]/N=C(/N)N[C@H]1[C@H](O)[C@@H](O)[C@H](O[C@@H]2O[C@@H](C)[C@](O)(C=O)[C@H]2O[C@@H]2O[C@@H](CO)[C@H](O)[C@@H](O)[C@@H]2NC)[C@@H](N/C(N)=N\[H])[C@@H]1O [Streptomycin]
MIC (H. pylori strain 26695 [1]; [9]): 1 µg/mL (≈ 1.72 µM) | MIC ([2]; Helicobacter pylori): 1 µg/mL (≈ 1.72 µM)

COc1cc(Cc2cnc(N)nc2N)cc(OC)c1OC [Trimethroprime]
MIC (H. pylori strain 26695 [1]; other antibiotics): >100 µg/mL | MIC ([2]; 26695 amiA mutant, other antibiotics): >100 µg/mL

CC1(C)S[C@@H]2[C@H](NC(=O)[C@H](N)c3ccc(O)cc3)C(=O)N2[C@H]1C(=O)O [amoxicillin]
MIC (H. pylori strain 26695 [1]; Helicobacter pylori, 3 log decrease of CFU/ml, read-out: MIC (μg/ml of amoxicillin)): 0.06 µg/mL | MIC ([2]; Helicobacter pylori, read-out: MIC (μg/ml of amoxicillin)): 0.06 µg/mL | MIC [3]: 0.125 µg/mL | Ratio MBC/MIC (H. pylori strain 26695 [4]): 1 | MCB (μg/ml of amoxicillin) (H. pylori strain 26695 [4]; liquid culture, 18 hours, 3 log decrease of CFU/ml): 0.06 µg/mL | MCB (μg/ml of amoxicillin) [5]: >32 µg/mL | Ratio MBC/MIC [6]: 2 | MCB (μg/ml of amoxicillin) ([6]; liquid culture, 18 hours): 0.250 µg/mL | % of coccoids (includes U and donut forms) (H. pylori strain 26695 [7]): 56.64% | Morphology of amiA mutant after amoxicillin ([8]; 10 μg/ml amoxicillin, three hours, after overnight culture, scanning electron microscopy): formed chains of spherical bacteria | % of coccoids (includes U and donut forms) ([8]; 26695 amiA−, 3-4 h exposure to amoxicillin (10 μg/ml) after 18 h of growth without antibiotic): 32.60% | Coccoid formation of amiA mutant after amoxicillin ([8]; exposure to 100 times its MIC): still induced coccoid formation

CN[C@H](CC(C)C)C(=O)N[C@H]1C(=O)N[C@@H](CC(N)=O)C(=O)N[C@H]2C(=O)N[C@H]3C(=O)N[C@H](C(=O)N[C@H](C(=O)O)c4cc(O)cc(O)c4-c4cc3ccc4O)[C@H](O)c3ccc(c(Cl)c3)Oc3cc2cc(c3O[C@@H]2O[C@H](CO)[C@@H](O)[C@H](O)[C@H]2O[C@H]2C[C@](C)(N)[C@H](O)[C@H](C)O2)Oc2ccc(cc2Cl)[C@H]1O [Vancomycin]
MIC (H. pylori strain 26695 [1]; [9]): > 1000 µg/mL | MIC ([2]; Helicobacter pylori): > 1000 µg/mL

— US20070042448A1, “Use of enzymes from Helicobacter pylori as therapeutical targets” (priority 2005, published 2007)
